# Marks after values point to notes of the source that are not given here.
# Key:
# [1] = tested on: intracellular pH of Arabidopsis guard cells; assay: Fluorescence imaging of guard cells expressing the pH sensor Pt-GFP; assay type: cell-based
# Method: Fluorescence imaging was performed with a TE300 inverted microscope using a TE-FM Epi-Fluorescence attachment (Nikon) as previously described (Allen et al, 2000). Fluorescence images at excitation wavelengths of 470 nm and 440 nm were taken every 2 s using light from a 75-Watt xenon short arc lamp (Osram, Germany). […] neutral density filters were used to reduce bleaching of fluorescent reporter. Metafluor software (MDS, Inc.) was used to control filter wheels, shutter and COOLSNAP™ (CoolSNAP) CCD camera from Photomerics when recording and also processing raw data. The fluorescence ratio F470/F440 of Pt-GFP was analyzed as a detection of pH shifts (Schulte et al, 2006). […]
# For recording intracellular Pt-GFP fluorescence in response to changes in extracellular pH incubation buffers, the pH of incubation buffers containing 10 mM MES, 10 mM KCl and 50 μM CaCl2 at 5.0 and 7.5 was adjusted by adding Tris-HCl. […] For recording intracellular Pt-GFP fluorescence in response to constant extracellular pH and added weak acid, the perfusion buffers contained 10 mM MES, 10 mM KCl and 50 μM CaCl2, pH 5.6 supplemented with the indicated concentrations of sodium butyrate. […] Background fluorescence intensities at 470 nm were measured in regions lacking guard cells and are also shown for the corresponding experiments.
# [2] = tested on: S-type anion channel currents in Arabidopsis guard cell protoplasts; assay: Whole-cell patch-clamp recording of S-type anion currents in guard cell protoplasts; assay type: cell-based; details: for current amplitude activated by bicarbonate at a voltage of −146 mV: 13.5 mM total bicarbonate; for HCO3− activated S-type anion current at a voltage of −146 mV: 11.5 mM [HCO3−]i and 2 mM [CO2]; for I (pA) at −146 mV: wild type Col-0 guard cells, pipette pH 7.1
# Method: The interpulse period was 5 s. Liquid junction potentials (LJP) were determined using Clampex 10.0. No leak subtraction was applied for all current-voltage curves. Steady-state currents were the average currents during the last 500 ms of pulses. Detail contents of solutions are discussed, below (see “supplementary data”). Bicarbonate (CsHCO3) was freshly dissolved in the pipette solution before patch clamp experiments and pH was adjusted to the indicated values. The pipette solution was stored using air-tight precision glass syringes during patch clamp experiments to slow CO2 equilibration with the surrounding air and was not stored overnight. […] [HCO3^−] represents the free bicarbonate concentration; [CO2] represents the free CO2 concentration. […] To independently measure CO2 concentrations in the solutions at different pH values, an InPro 5000 CO2 sensor (Mettler Tolego 400, Mettler-Toledo Inc, USA) was used for dissolved CO2. The InPro 5000 sensor employs a gas permeable silicone membrane. The significance of differences between data sets was assessed by noncoupled double-tailed Student's t-test analysis. Values of P<0.05 were considered statistically significant.
# For experiments analyzing effects of protons on S-type anion currents, the pipette solution contained 150 mM CsCl, 2 mM MgCl2, 6.7 mM EGTA, 0.6 mM CaCl2 (2 μM [Ca^2+]i), 5 mM Mg-ATP, 5 mM Tris-GTP, 1 mM Mes/Tris, pH 6.1. For experiments with pipette solution at pH 7.8, the pipette medium contained 150 mM CsCl, 2 mM MgCl2, 2 μM free [Ca^2+]i, 5 mM Mg-ATP, 5 mM Tris-GTP, 1 mM HEPES/Tris. Calcium affinities of EGTA and free Ca^2+ concentrations were calculated using the WEBMAXC tool (http://www.stanford.edu/-epatton/webmaxc/webmaxcE.htm), which considers pH, [ATP] and ionic conditions. The bath solution contained 30 mM CsCl, 2 mM MgCl2, 5 mM CaCl2 and 10 mM Mes/Tris, pH 5.6.
# [3] = tested on: Arabidopsis intact leaves; assay: Stomatal conductance measurements of intact leaves in response to imposed [CO2] (Li-6400 gas exchange analyzer); assay type: in vivo
# Method: Stomatal conductance measurements of 5-week-old plants in response to the imposed [CO2] at a light (PAR) fluence rate of 150 μmol m^−2s^−1 were conducted with a Li-6400 gas exchange analyzer with a fluorometer chamber (Li-Cor Inc.) as described-previously (Hu at al, 2010). To reduce the wilting of abi1-1 and abi1-2 mutant leaves, all plants ware analyzed with a humidifier that humidified the air surrounding plants to ˜75-85%. Relative stomatal conductance values of intact leaves were calculated by normalization relative to 365 or 400 ppm just before transition to 800 ppm [CO2]. Data shown are mean±s.e. of at least 3 leaves per genotype in the same experimental set.
# [4] = tested on: voltage-dependent anion channels (R-type anion channels) in Arabidopsis hypocotyl cells; details: Arabidopsis hypocotyl cells (Frachisse et al, 1999); cited from earlier work
compound,measurement,setting,value
"O=C=O [CO2, carbon dioxide]",guard cell intracellular pH fluorescence (Pt-GFP),[1]; CO2 bubbled in extracellular perfusion buffers repeatedly shifted from 0 ppm to 800 ppm,no clear shifts
same,activation of S-type anion channel currents,"[2]; wild type, 2 mM intracellular free [CO2] (1.1 mM free [HCO3−]i) at pH 6.1, P>0.05",not activated
same,initial rate of stomatal conductance change,"[3]; abi1-1 mutant plants, [CO2] shifted from 400 to 800 ppm for 30 min, ~75-85% humidity",-0.035 ± 0.007 mmol H2O m^-2 s^-1 min^-1
same,initial rate of stomatal conductance change,"[3]; abi2-1 mutant plants, [CO2] shifted from 400 to 800 ppm for 30 min, ~75-85% humidity",-0.037 ± 0.007 mmol H2O m^-2 s^-1 min^-1
same,initial rate of stomatal conductance change,"[3]; pyr1;pyl1;pyl2;pyl4 mutant plants, [CO2] shifted from 365 to 800 ppm for 30 min",−0.035±0.008 mmol H2O m^−2 s^−1 min^−1
same,initial rate of stomatal conductance change,"[3]; pyr1;pyl1;pyl2;pyl4 mutant plants, first 30 min upon shifting [CO2] from 800 to 100 ppm",0.022±0.002 mmol H2O m^−2 s^−1 min^−1
same,initial rate of stomatal conductance change,"[3]; wild type plants, [CO2] shifted from 365 to 800 ppm for 30 min",−0.038±0.014 mmol H2O m^−2 s^−1 min^−1
same,initial rate of stomatal conductance change,"[3]; wild type plants, [CO2] shifted from 400 to 800 ppm for 30 min, ~75-85% humidity",−0.041±0.01 mmol H2O m^−2 s^−1 min^−1
same,initial rate of stomatal conductance change,"[3]; wild type plants, first 30 min upon shifting [CO2] from 800 to 100 ppm",0.042±0.013 mmol H2O m^−2 s^−1 min^−1
O=C(O)O [bicarbonate],current amplitude activated by bicarbonate at a voltage of −146 mV,"[2]; Col-0 wild type guard cells, 2 μM [Ca2+]i, n=10",−59±5.9 pA
same,whole-cell current at a voltage of −144 mV,"[2]; Col-0 wild type, extracellular bath perfusion with 13.5 mM total bicarbonate (11.5 mM free HCO3−, 2 mM CO2) pH 7.1, n=6",−17±5 pA
same,HCO3− activated S-type anion current at a voltage of −146 mV,"[2]; Ler wild type guard cells, 2 μM [Ca2+]i, n=7",−51±4.3 pA
same,activation of anion currents,"[2]; ca1;ca4 double mutant guard cells, 13.5 mM total bicarbonate (11.5 mM free [HCO3−]i/2 mM free [CO2]) pH 7.1, 2 μM [Ca2+]i",activated anion currents
same,activation of S-type anion currents,"[2]; ht1-2 guard cells, 5.75 mM free [HCO3−]i and 1 mM free [CO2] pH 7.1, 2 μM [Ca2+]i, P<0.01",significant activation
same,activation of S-type anion currents,"[2]; ht1-2 guard cells, 5.75 mM free [HCO3−]i, [Ca2+]i buffered to 0.15 μM",no significant S-type anion current activation
same,reversal potential of CO2+HCO3− activated whole-cell currents,"[2]; imposed chloride equilibrium potential +31.1 mV, n=8",+24.0±3.6 mV
same,HCO3− activated S-type anion current at a voltage of −146 mV,"[2]; ost1-2 mutant guard cells, 2 μM [Ca2+]i, n=6",−25.2±1.9 pA
same,current amplitude activated by bicarbonate at a voltage of −146 mV,"[2]; ost1-3 mutant guard cells, 2 μM [Ca2+]i, n=6",−24±1.9 pA
same,anion currents in the presence of bicarbonate,"[2]; slac1-1 mutant guard cell protoplasts, 11.5 mM free [HCO3−]i and 2 mM [CO2], similar to control, P>0.05",only small anion currents
same,I (pA) at −146 mV,"[2]; [Ca^2+]i 0.15 μM, free [HCO3]i 11.5 mM",−22.3 ± 2.3^c pA
same,I (pA) at −146 mV,"[2]; [Ca^2+]i 0.6 μM, free [HCO3]i 11.5 mM",−27.3 ± 4.5^f pA
same,I (pA) at −146 mV,"[2]; [Ca^2+]i 2 μM, free [HCO3]i 5.75 mM",−21.8 ± 3.2^d pA
same,I (pA) at −146 mV,"[2]; [Ca^2+]i 2 μM, free [HCO3]i 11.5 mM",−58.7 ± 5.9^e pA
same,activation of S-type anion currents,"[2]; wild type, 13.04 mM free [HCO3−] with 0.46 mM free [CO2] at pH 7.8, 2 μM [Ca2+]i, P<0.05",S-type anion currents were activated
same,reversal potential of whole-cell S-type anion currents,"[2]; wild type, 50 mM total bicarbonate in pipette pH 7.1 (43.4 mM free [HCO3−]i, 6.6 mM free [CO2]), n=4",+26.0±0.9 mV
same,relative permeability ratio of PHCO3−/PCi−,"[2]; wild type, 50 mM total bicarbonate, estimated using the Goldman equation",0.06±0.01
same,activation of S-type anion currents by extracellular application,"[2]; wild type, bath perfused 2 min with 11.5 mM free [HCO3−] and 2 mM [CO2] at pH 7.1",No large S-type anion currents were activated
same,relative permeability ratio PHCO3−PCO−,[4],0.8
CCCC(=O)[O-].[Na+] [sodium butyrate],"ratiometric fluorescence (F470/F440) of Pt-GFP, intracellular pH","[1]; intact epidermes perfused with sodium butyrate-containing MES buffers, pH 5.6",clear shifts

# — patent US20130326734A1, “COMPOSITIONS AND METHODS FOR CONTROLLING CARBON DIOXIDE- (CO2-) REGULATED STOMATAL APERTURES, WATER TRANSPIRATION AND WATER USE EFFICIENCY IN PLANTS” (THE REGENTS OF THE UNIVERSITY OF CALIFORNIA, priority 2011, published 2013)
